Experimental data as given in PMC10930102 (Journal of Enzyme Inhibition and Medicinal Chemistry, 2024).

Legend:
HDAC8 = molecular target: T1, HDAC8 (Homo sapiens, UniProt Q9BY41); assay: HDAC inhibition assay (fluorogenic diacylpeptide, Reaction Biology); assay type: biochemical; conditions: tested once, ten-dose starting at 30 µM
T1 construct: purchased Reaction Biology Corporation; host or cells: baculovirus expression system in SF9 cells
T1 sequence (Q9BY41 1-377): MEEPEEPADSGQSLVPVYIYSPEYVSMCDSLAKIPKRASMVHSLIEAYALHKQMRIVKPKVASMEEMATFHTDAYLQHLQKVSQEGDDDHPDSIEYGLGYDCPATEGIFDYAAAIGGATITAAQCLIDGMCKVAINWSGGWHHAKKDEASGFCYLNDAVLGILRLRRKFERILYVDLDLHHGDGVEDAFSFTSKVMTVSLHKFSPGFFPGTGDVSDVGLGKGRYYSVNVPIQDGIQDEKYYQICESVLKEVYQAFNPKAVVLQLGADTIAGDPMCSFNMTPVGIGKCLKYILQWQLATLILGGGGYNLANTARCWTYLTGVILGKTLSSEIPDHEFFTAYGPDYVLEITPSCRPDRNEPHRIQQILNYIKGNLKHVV

HDAC11 = molecular target: T2, HDAC11 (Homo sapiens, UniProt Q96DB2); assay: HDAC inhibition assay (fluorogenic peptide, Reaction Biology); assay type: biochemical; conditions: tested once, ten-dose starting at 30 µM
T2 construct: purchased Reaction Biology Corporation; host or cells: baculovirus expression system in SF9 cells
T2 sequence (Q96DB2 1-347): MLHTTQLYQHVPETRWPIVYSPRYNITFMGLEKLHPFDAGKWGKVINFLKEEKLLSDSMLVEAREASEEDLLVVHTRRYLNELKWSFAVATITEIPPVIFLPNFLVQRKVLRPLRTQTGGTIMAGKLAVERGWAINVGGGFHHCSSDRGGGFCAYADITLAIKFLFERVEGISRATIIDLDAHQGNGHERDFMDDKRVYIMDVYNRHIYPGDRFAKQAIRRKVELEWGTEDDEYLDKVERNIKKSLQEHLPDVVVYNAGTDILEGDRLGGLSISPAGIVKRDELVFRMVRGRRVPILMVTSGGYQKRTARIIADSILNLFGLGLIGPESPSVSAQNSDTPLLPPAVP

HepG2 = assay: SRB antiproliferation assay; assay type: cell-based; conditions: Homo sapiens, 48 h, read-out: Antiproliferative activity (IC50) HepG2
U87MG = assay: SRB antiproliferation assay; assay type: cell-based; conditions: Homo sapiens, U-87 MG, 48 h, read-out: Antiproliferative activity (IC50) U87MG
H2228 = assay: SRB antiproliferation assay; assay type: cell-based; conditions: Homo sapiens, NCI-H2228, 48 h, ALK-addicted cells, read-out: Antiproliferative activity (IC50) H2228
EGFR = molecular target: T3, EGFR (Homo sapiens, UniProt P00533); assay: RTK in vitro enzymatic assay; assay type: biochemical; conditions: 20 μM ATP
T3 construct: purchased Reaction Biology Corporation

VEGFR2 = molecular target: T4, VEGFR2 (Homo sapiens, UniProt P35968); assay: RTK in vitro enzymatic assay; assay type: biochemical; conditions: 20 μM ATP
T4 construct: purchased Reaction Biology Corporation

c-Met = molecular target: T5, c-Met (Homo sapiens, UniProt P08581); assay: RTK in vitro enzymatic assay; assay type: biochemical; conditions: 20 μM ATP
T5 construct: purchased Reaction Biology Corporation

IGF1R = molecular target: T6, IGF1R (Homo sapiens, UniProt P08069); assay: RTK in vitro enzymatic assay; assay type: biochemical; conditions: 20 μM ATP
T6 construct: purchased Reaction Biology Corporation

ALK C1156Y = molecular target: T7, ALK C1156Y (Homo sapiens, UniProt Q9UM73, C1156Y); assay: ALK mutant in vitro enzymatic assay; assay type: biochemical; conditions: 20 μM ATP
T7 construct: purchased Reaction Biology Corporation

ALK F1174L = molecular target: T8, ALK F1174L (Homo sapiens, UniProt Q9UM73, F1174L); assay: ALK mutant in vitro enzymatic assay; assay type: biochemical; conditions: 20 μM ATP
T8 construct: purchased Reaction Biology Corporation

[1] = tested on: acetylation level of α-tubulin, a substrate of HDAC6; assay: Western blot of acetylated α-tubulin in H2228 cells; assay type: cell-based, human; conditions: 6 h, 3b 2 µM
Source text: Figure 4. Effect of test compounds on H2228 cells. […] (A) Western blots of phosphorylated tyrosine residue 1640 on ALK as well as acetylated (Ac) α-tubulin and histone H3 with their corresponding total proteins for normalisation. GAPDH was used as a loading control. (B) Quantification of western blotting results using Image J. Error bars indicate ± S.D.E. *p-Value ≤ 0.05, **p-value ≤ 0.01, ***p-value ≤ 0.001.
Treated cells were washed three times with ice-cold phosphate-buffered saline and lysed in lysis buffer containing 100 mM Tris-HCl, 12 mM sodium deoxycholate, 12 mM sodium lauroylsarcosinate, and protease inhibitor cocktail (BioTools). Cells were heated in lysis buffer at 95 °C for 5 min and then the cell membrane was broken up by sonication (Bioruptor). Cellular debris and unbroken cells were removed by centrifugation (12,500 × g for 30 min, 4 °C). Protein concentration was determined using the bicinchoninic acid assay (Thermo). Cell extracts (20 μg) were resolved by 12% sodium dodecyl sulfate-polyacrylamide gel electrophoresis (SDS-PAGE), transferred to PVDF membranes, and probed separately with antibodies for Ac-histone H3, Ac-α-tubulin, histone H3, α-tubulin, HDAC1, HDAC6, HDAC8 and GAPDH. […] Antibody signals were detected using an enhanced chemiluminescence system.

[2] = tested on: protein expression level of HDAC1, HDAC6, or HDAC8; assay: Western blot of HDAC protein expression; assay type: cell-based, human; conditions: western blot after treatment (supplemental Figure S3)
Description: Treated cells were washed three times with ice-cold phosphate-buffered saline and lysed in lysis buffer containing 100 mM Tris-HCl, 12 mM sodium deoxycholate, 12 mM sodium lauroylsarcosinate, and protease inhibitor cocktail (BioTools). Cells were heated in lysis buffer at 95 °C for 5 min and then the cell membrane was broken up by sonication (Bioruptor). Cellular debris and unbroken cells were removed by centrifugation (12,500 × g for 30 min, 4 °C). Protein concentration was determined using the bicinchoninic acid assay (Thermo). Cell extracts (20 μg) were resolved by 12% sodium dodecyl sulfate-polyacrylamide gel electrophoresis (SDS-PAGE), transferred to PVDF membranes, and probed separately with antibodies for Ac-histone H3, Ac-α-tubulin, histone H3, α-tubulin, HDAC1, HDAC6, HDAC8 and GAPDH. The antibodies of GAPDH, HDAC1, and HDAC8 were purchased from ABclonal and all other antibodies were from Cell Signalling Technology. Antibody signals were detected using an enhanced chemiluminescence system.
Figure S3. Western blots of HDAC1, HDAC6, and HDAC8 after drug treatment and vehicle control
activity was assessed by MTS assay, and the concentration of inhibitors was determined to be half of their
was tested five times, and the results were normalized to 1. (blank) […]

CYP1A2 = molecular target: T9, CYP1A2 (Homo sapiens, UniProt P05177); assay: CYP450 inhibition assay; assay type: in vitro ADME; conditions: human recombinant enzyme; read-out: IC50 CYP1A2
T9 construct: purchased Reaction Biology Corporation; host or cells: CYP cDNA baculovirus expression systems

CYP2C9 = molecular target: T10, CYP2C9 (Homo sapiens, UniProt P11712); assay: CYP450 inhibition assay; assay type: in vitro ADME; conditions: human recombinant enzyme
T10 construct: purchased Reaction Biology Corporation; host or cells: CYP cDNA baculovirus expression systems

hERG = molecular target: T11, hERG (Homo sapiens, UniProt Q12809); assay: hERG binding competition assay (Predictor hERG Tracer Red); conditions: binding competition with fluorescent tracer
T11 construct: purchased
T11 sequence (Q12809 whole entry): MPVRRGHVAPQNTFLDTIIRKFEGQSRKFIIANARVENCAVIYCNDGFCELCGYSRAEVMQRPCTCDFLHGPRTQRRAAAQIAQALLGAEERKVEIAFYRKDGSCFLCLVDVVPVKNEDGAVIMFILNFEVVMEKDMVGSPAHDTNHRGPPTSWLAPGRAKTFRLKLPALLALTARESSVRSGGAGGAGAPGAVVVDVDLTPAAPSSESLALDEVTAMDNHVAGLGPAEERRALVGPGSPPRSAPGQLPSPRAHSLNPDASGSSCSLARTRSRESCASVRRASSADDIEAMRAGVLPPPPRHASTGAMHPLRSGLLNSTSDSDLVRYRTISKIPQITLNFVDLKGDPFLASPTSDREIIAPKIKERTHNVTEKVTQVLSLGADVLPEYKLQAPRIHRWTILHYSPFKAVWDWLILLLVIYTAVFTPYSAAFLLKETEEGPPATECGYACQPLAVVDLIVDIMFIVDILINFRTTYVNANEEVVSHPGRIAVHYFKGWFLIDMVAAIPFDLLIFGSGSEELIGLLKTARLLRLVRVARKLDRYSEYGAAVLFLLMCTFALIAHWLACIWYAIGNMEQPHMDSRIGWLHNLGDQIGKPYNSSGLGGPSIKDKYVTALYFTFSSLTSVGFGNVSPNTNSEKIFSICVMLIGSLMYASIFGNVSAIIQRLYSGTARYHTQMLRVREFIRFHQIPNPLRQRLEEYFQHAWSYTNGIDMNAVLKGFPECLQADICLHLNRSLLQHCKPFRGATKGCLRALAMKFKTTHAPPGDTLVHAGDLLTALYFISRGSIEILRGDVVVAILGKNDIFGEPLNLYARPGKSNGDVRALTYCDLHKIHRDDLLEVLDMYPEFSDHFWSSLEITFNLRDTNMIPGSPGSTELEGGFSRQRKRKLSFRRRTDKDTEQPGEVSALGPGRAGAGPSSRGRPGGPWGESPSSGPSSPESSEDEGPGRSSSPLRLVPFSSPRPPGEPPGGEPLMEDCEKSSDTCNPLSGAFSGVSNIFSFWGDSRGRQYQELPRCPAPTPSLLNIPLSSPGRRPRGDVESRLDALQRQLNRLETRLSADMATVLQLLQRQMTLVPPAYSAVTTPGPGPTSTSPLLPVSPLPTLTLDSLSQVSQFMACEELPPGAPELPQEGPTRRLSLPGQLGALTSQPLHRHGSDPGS

T9 sequence (P05177 whole entry): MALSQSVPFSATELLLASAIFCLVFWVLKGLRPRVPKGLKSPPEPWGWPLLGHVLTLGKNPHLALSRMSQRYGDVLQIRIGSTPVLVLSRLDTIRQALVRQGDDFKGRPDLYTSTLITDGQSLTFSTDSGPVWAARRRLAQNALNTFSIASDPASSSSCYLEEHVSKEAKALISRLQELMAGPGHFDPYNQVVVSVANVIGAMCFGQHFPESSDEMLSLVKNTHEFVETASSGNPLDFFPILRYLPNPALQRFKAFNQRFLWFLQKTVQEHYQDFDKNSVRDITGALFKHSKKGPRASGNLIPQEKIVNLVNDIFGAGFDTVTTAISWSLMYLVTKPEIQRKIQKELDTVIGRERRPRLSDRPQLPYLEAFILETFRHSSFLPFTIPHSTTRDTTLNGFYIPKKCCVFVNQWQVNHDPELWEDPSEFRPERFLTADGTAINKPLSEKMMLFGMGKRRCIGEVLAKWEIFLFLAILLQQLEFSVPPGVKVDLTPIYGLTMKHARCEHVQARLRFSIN
T4 sequence (P35968 20-1356): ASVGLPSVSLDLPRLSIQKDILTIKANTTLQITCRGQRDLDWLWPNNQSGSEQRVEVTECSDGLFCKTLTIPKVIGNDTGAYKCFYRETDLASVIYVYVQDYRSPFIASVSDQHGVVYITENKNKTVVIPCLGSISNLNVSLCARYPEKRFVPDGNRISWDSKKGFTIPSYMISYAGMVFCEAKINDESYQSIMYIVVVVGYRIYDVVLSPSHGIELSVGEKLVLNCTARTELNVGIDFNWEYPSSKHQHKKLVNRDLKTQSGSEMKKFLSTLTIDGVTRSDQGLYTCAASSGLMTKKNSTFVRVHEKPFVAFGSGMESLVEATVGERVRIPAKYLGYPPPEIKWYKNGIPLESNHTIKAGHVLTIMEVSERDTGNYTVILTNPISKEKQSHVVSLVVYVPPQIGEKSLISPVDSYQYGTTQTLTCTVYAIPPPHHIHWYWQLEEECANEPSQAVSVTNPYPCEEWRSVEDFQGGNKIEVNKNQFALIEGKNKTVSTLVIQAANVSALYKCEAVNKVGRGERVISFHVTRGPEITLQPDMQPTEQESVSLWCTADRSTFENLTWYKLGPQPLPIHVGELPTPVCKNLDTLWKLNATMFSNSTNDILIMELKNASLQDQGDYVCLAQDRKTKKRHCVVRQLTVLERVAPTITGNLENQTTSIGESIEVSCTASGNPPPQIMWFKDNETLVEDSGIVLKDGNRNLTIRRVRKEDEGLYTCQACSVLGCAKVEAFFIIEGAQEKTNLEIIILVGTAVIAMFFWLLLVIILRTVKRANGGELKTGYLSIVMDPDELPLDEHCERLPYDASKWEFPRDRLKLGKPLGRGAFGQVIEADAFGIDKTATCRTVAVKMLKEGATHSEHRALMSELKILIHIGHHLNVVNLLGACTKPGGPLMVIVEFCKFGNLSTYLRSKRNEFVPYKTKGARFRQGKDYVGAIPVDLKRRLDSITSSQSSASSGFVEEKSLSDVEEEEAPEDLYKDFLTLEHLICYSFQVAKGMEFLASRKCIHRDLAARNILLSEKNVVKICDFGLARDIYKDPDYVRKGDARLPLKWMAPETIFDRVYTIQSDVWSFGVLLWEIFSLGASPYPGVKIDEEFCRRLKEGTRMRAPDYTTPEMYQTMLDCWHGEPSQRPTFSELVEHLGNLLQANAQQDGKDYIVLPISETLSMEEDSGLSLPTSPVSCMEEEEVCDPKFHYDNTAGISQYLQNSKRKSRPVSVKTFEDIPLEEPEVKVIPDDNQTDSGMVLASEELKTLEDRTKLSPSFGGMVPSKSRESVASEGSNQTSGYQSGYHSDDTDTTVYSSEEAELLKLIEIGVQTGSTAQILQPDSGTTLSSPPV
T10 sequence (P11712 whole entry): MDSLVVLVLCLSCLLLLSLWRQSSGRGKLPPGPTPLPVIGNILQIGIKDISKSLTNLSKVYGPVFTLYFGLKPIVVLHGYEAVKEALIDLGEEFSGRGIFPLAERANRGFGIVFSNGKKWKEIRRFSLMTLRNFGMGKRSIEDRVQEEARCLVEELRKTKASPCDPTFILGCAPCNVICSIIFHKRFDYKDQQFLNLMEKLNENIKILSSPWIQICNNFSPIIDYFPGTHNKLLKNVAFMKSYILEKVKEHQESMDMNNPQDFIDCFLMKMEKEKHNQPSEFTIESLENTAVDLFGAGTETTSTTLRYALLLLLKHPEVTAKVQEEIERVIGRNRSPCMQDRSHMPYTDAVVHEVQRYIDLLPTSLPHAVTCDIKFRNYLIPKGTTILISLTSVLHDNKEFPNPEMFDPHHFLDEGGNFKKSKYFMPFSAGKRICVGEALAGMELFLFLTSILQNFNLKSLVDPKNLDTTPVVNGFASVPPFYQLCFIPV
T6 sequence (P08069 31-1367): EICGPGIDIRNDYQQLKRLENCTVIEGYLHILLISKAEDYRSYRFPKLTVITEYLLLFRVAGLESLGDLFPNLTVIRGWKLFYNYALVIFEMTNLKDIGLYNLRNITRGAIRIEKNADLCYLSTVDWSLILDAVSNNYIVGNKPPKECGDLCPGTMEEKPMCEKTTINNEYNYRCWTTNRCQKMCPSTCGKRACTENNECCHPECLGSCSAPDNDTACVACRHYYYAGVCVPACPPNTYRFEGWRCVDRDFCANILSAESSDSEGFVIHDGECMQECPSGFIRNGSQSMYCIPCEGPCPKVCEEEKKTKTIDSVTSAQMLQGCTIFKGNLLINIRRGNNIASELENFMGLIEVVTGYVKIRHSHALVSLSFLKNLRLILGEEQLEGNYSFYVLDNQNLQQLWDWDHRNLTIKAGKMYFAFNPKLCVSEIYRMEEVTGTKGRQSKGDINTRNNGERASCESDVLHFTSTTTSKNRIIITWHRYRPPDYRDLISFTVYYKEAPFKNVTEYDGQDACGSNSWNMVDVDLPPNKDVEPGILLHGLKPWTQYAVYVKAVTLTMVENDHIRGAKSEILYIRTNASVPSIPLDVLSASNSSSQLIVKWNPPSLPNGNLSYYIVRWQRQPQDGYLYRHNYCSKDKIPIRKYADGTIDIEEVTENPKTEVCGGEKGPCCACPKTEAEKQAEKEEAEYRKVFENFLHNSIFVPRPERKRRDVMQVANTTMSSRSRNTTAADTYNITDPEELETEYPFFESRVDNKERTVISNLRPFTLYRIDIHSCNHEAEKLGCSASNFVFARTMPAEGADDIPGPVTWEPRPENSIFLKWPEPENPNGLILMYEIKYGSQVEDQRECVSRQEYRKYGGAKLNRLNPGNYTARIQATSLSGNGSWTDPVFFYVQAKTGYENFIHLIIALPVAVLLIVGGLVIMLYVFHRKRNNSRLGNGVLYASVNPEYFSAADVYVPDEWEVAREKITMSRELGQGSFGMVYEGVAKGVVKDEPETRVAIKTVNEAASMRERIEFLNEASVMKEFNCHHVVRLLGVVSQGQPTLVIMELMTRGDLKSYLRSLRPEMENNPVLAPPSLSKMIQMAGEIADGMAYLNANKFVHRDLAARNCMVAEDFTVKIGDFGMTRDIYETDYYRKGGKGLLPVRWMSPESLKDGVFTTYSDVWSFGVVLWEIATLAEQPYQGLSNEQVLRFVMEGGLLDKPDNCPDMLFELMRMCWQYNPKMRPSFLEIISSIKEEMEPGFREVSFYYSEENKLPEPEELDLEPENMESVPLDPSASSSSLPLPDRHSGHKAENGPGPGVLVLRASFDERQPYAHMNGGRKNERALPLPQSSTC

For `CC(C)NC(=O)C1CCC(n2c(=NC(=O)c3ccccc3)[nH]c3cc(C=CC(=O)NO)ccc32)CC1` [Compound 3b, (E)-N-(5-((E)-3-(Hydroxyamino)-3-oxoprop-1-en-1-yl)-1-((1S,4S)-4-(isopropylcarbamoyl)cyclohexyl)-1H-benzo[d]imidazol-2(3H)-ylidene)benzamide], the IC50 (HDAC8) was 1690 nM, the IC50 (HDAC11) was 16.6 µM and the IC50 (HepG2) was 590 ± 90 nM. For the same compound, the IC50 (U87MG) was 620 ± 100 nM, the IC50 (H2228) was 440 ± 60 nM and the IC50 (EGFR) was > 10 µM. The IC50 (VEGFR2) was > 10 µM, the IC50 (c-Met) was > 10 µM and the IC50 (IGF1R) was 4.84 µM. The IC50 (ALK C1156Y) was 9.7 nM, the IC50 (ALK F1174L) was 59 nM and the “acetylation level of α-tubulin” value [1] was “obviously elevated”. The “protein expression level of HDAC1, HDAC6, or HDAC8” value [2] was “not perturbed”, the IC50 (CYP1A2) was 12.7 µM and the IC50 (CYP2C9) was 2650 nM. For the same compound, the IC50 (hERG) was > 10 µM and the “IC50 hERG” value (hERG) was “no inhibitory affect”.
